pIC50: −log10 of the molar value.
Each compound was assayed against T1, human Granzyme B (hGzmB) (Homo sapiens, UniProt P10144) (assay: Human Granzyme B enzymatic inhibition assay (fluorogenic, kinetic)). Conditions: not given.
T1 construct: purchased Froelich Lab, Northshore University Health Systems Research Institute, Evanston, Ill., USA
T1 sequence (P10144 21-247): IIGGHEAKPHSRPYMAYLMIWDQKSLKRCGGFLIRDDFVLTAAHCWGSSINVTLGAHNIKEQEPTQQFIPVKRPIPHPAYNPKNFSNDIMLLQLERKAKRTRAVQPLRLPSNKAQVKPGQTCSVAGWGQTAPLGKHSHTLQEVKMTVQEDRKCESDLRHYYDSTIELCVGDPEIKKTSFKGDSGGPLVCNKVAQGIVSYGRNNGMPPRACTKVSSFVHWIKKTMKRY
Format: biochemical
Procedure: A specific 2× assay buffer was prepared for the enzyme to be tested (see Table 2 for final 1× assay buffer compositions). If the assay buffer included DTT, it was added immediately prior to running the assay. A 2× enzyme mix was prepared (see Table 3 for enzyme assay conditions) at 80 uL per well. Compounds were screened at one or two appropriate concentrations (to determine the percent inhibition at those concentrations) and/or a full dose response curve (typically 8 points, to identify the IC50) in duplicate, triplicate, or higher replicates as needed. An appropriate control was also assessed in full dose response, in duplicate for each assay/plate. Background control wells consisted of 1× assay buffer, DMSO (5% v/v) and substrate. Positive control wells consisted of enzyme, DMSO (5% v/v) and substrate. Test compounds and control compounds were diluted in DMSO to […] the final desired concentration. For example, a test compound may be tested in dose response, in serial, tripling dilution condition starting at 20 uM and ending at 9.1 nM (or any appropriate concentration range and dilution scheme). Control compounds were prepared similarly. Diluted compounds were prepared in a dilution plate and transferred to the reaction plate (96-well medium binding plate (Greiner Bio-One FLUOTRAC™)) to allow for the desired final concentrations when added to the enzyme with AB. After mixing, the reaction plate was placed on a shaker (at 300 RPM) for 5 min, followed by incubation (covered) on the bench, for 20 min. Plates were warmed to reaction temperature (see Table 3) for a total incubation time of 30 min. Plates so prepared were ready for addition of substrate and the subsequent reaction.
(§1) An appropriate substrate for each assay was prepared in advance at 2× the final desired concentration (see Table 2) in DMSO. The appropriate substrate mix was added to each appropriate well on the reaction plate, and the plate was read immediately in the TECAN plate reader (TECAN INFINITE® M1000 Pro), set to the correct wavelength as needed for each assay (see Table 3) using 25 cycles, kinetic interval of 1 min, number of reads per well of 20 with shaking set to 1 s, double orbital, 2 mm amplitude. For fluorescent assays the gain was set to optimal (50%).
An in vitro fluorogenic detection assay for assessing the IC50 and/or percent inhibition at a given concentration of inhibitors against human Granzyme B (hGzmB) enzyme was performed as described in Example D1. When appropriate, percent inhibition data was collected and fitted to generate IC50 data using GraphPad Prism 5 (GraphPad Software, La Jolla Calif. USA, www.graphpad.com) and its non-linear regression analysis tools or other equivalent tools. […]
as §1, with “5)” for “2)”, “assay buffer. 30 uL of the” for “DMSO. The”, “6)” for “3)”, “15” for “25”, “(100% with gain regulation) for all assays except human GzmB which was set to 85 (with the z set at 23000 um).” for “(50%).”
An in vitro fluorogenic detection assay for assessing the IC50 and/or percent inhibition at a given concentration of inhibitors against human Granzyme B (hGzmB) enzyme was performed as described in Example D5. When appropriate, percent inhibition data was collected and fitted to generate IC50 data using GraphPad Prism 5 (GraphPad Software, La Jolla Calif. USA, www.graphpad.com) and its non-linear regression analysis tools or other equivalent tools.
`CC[C@H](C)[C@H](NC(=O)[C@H](N)CC(=O)O)C(=O)NCC(=O)N1c2ccccc2C[C@H]1C(=O)NCc1nn[nH]n1` [Example A38, (3R)-3-Amino-3-{[(1S,2S)-2-Methyl-1-({2-Oxo-2-[(2S)-2-[(2H-1,2,3,4-Tetrazol-5-Ylmethyl)Carbamoyl]-2,3-Dihydro-1H-Indol-1-Yl]Ethyl}Carbamoyl)Butyl]Carbamoyl}Propanoic Acid] gave a pIC50 of 6.00 to 7.00. With `CC[C@H](C)[C@H](NC(=O)[C@@H](N)CC(=O)O)C(=O)NCC(=O)N1c2ccccc2C[C@H]1C(=O)NCc1nn[nH]n1` [Example A37, (3S)-3-Amino-3-{[(1S,2S)-2-Methyl-1-({2-Oxo-2-[(2S)-2-[(2H-1,2,3,4-Tetrazol-5-Ylmethyl)Carbamoyl]-2,3-Dihydro-1H-Indol-1-Yl]Ethyl}Carbamoyl)Butyl]Carbamoyl}Propanoic Acid] the pIC50 was 6.00 to 7.00.

Same assay, conditions: activity codes, Table 7; read-out: IC50 Activity Range
For `CC[C@H](C)[C@H](NC(=O)Cc1ccccc1)C(=O)NCC(=O)N1c2ccccc2CCC1C(=O)NCc1c[nH]nn1` (mixture of isomers) [Example B5, (2S)-1-{2-[(2S,3S)-3-Methyl-2-(2-Phenylacetamido)Pentanamido]Acetyl}-N-(1H-1,2,3-Triazol-4-Ylmethyl)-1,2,3,4-Tetrahydroquinoline-2-Carboxamide], the pIC50 was 5.00 to 6.00. For `CC[C@H](C)[C@H](NC(=O)Cc1nn[nH]n1)C(=O)NCC(=O)N1c2ccccc2C[C@H]1C(=O)NCc1c[nH]nn1` [Example C39, (2S)-1-{2-[(2S,3S)-3-Methyl-2-[2-(2H-1,2,3,4-Tetrazol-5-Yl)Acetamido]Pentanamido]Acetyl}-N-(1H-1,2,3-Triazol-4-Ylmethyl)-2,3-Dihydro-1H-Indole-2-Carboxamide], the pIC50 was > 7.00. With `CC[C@H](C)[C@H](NC(=O)Cc1ccccc1)C(=O)NCC(=O)N1c2ccc([N+](C)(C)C)cc2C[C@H]1C(=O)NCc1nn[nH]n1` [Example C34, (2S)—N,N,N-Trimethyl-1-{2-[(2S,3S)-3-Methyl-2-(2-Phenylacetamido)Pentanamido]Acetyl}-2-[(2H-1,2,3,4-Tetrazol-5-Ylmethyl)Carbamoyl]-2,3-Dihydro-1H-Indol-5-Aminium Iodide] the pIC50 was < 5.00. `CC[C@H](C)[C@H](NC(=O)[C@@H](C)c1ccccc1)C(=O)NCC(=O)N1c2ccccc2C[C@H]1C(=O)NCc1nn[nH]n1` [Example A50, (2S)-1-{2-[(2S,3S)-3-Methyl-2-[(2S)-2-Phenylpropanamido]Pentanamido]Acetyl}-N-(2H-1,2,3,4-Tetrazol-5-Ylmethyl)-2,3-Dihydro-1H-Indole-2-Carboxamide] gave a pIC50 of 6.00 to 7.00. In the case of `CC[C@H](C)[C@H](NC(=O)Cc1ccccc1)C(=O)N[C@@H](CCCC(=O)O)C(=O)N1c2ccccc2C[C@H]1C(=O)NCc1nn[nH]n1` [Example C17, (5S)-5-[(2S,3S)-3-Methyl-2-(2-Phenylacetamido)Pentanamido]-6-Oxo-6-[(2S)-2-[(2H-1,2,3,4-Tetrazol-5-Ylmethyl)Carbamoyl]-2,3-Dihydro-1H-Indol-1-Yl]Hexanoic Acid], the pIC50 was 5.00 to 6.00. For `CC[C@H](C)[C@H](NC(=O)CCC(=O)OCCOC(=O)C(C)(C)C)C(=O)NCC(=O)N1c2ccccc2C[C@H]1C(=O)NCc1nn[nH]n1` [Example A47, 2-[(2,2-Dimethylpropanoyl)Oxy]Ethyl 3-{[(1S,2S)-2-Methyl-1-({2-Oxo-2-[(2S)-2-[(2H-1,2,3,4-Tetrazol-5-Ylmethyl)Carbamoyl]-2,3-Dihydro-1H-Indol-1-Yl]Ethyl}Carbamoyl)Butyl]Carbamoyl}Propanoate], the pIC50 was 6.00 to 7.00. In the case of `CC[C@H](C)[C@H](Nc1ncccn1)C(=O)NCC(=O)N1c2ccccc2C[C@H]1C(=O)NCc1nn[nH]n1` [Example C26, (2S)-1-{2-[(2S,3S)-3-Methyl-2-[(Pyrimidin-2-Yl)Amino]Pentanamido]Acetyl}-N-(2H-1,2,3,4-Tetrazol-5-Ylmethyl)-2,3-Dihydro-1H-Indole-2-Carboxamide], the pIC50 was < 5.00. In the case of `CC[C@H](C)[C@H](NC(=O)Cc1ccccc1)C(=O)NCC(=O)N1c2ccccc2C[C@H]1C(=O)NC(C)c1nn[nH]n1` (stereo partly drawn) [Example B3], the pIC50 was 5.00 to 6.00. `CC[C@H](C)[C@H](NC(=O)Cc1ccccc1)C(=O)NCC(=O)N1c2ccc(NC(C)(C)C)cc2C[C@H]1C(=O)NCc1nn[nH]n1` [Example C33, (2S)-5-(Tert-Butylamino)-1-{2-[(2S,3S)-3-Methyl-2-(2-Phenylacetamido)Pentanamido]Acetyl}-N-(2H-1,2,3,4-Tetrazol-5-Ylmethyl)-2,3-Dihydro-1H-Indole-2-Carboxamide] was tested, and the pIC50 was < 5.00. In the case of `CC[C@H](C)[C@H](NC(=O)Cc1ccccc1)C(=O)N[C@H](CCC(=O)O)C(=O)N1c2ccccc2C[C@H]1C(=O)NCc1nn[nH]n1` [Example C16, (4R)-4-[(2S,3S)-3-Methyl-2-(2-Phenylacetamido)Pentanamido]-5-Oxo-5-[(2S)-2-[(2H-1,2,3,4-Tetrazol-5-Ylmethyl)Carbamoyl]-2,3-Dihydro-1H-Indol-1-Yl]Pentanoic Acid], the pIC50 was 6.00 to 7.00. `CC[C@H](C)[C@H](NC(=O)Cc1ccccc1)C(=O)NCC(=O)N1c2ccc(NC(=O)OC(C)(C)C)cc2C[C@H]1C(=O)NCc1nn[nH]n1` [Example C31, Tert-Butyl N-[(2S)-1-{2-[(2S,3S)-3-Methyl-2-(2-Phenylacetamido)Pentanamido]Acetyl}-2-[(2H-1,2,3,4-Tetrazol-5-Ylmethyl)Carbamoyl]-2,3-Dihydro-1H-Indol-5-Yl]Carbamate] was tested, and the pIC50 was 6.00 to 7.00. In the case of `CC[C@H](C)[C@H](NC(=O)Cc1ccccc1)C(=O)N[C@@H](CCCCN)C(=O)N1c2ccccc2C[C@H]1C(=O)NCc1nn[nH]n1` [Example C18, (2S)-1-[(2S)-6-Amino-2-[(2S,3S)-3-Methyl-2-(2-Phenylacetamido)Pentanamido]Hexanoyl]-N-(2H-1,2,3,4-Tetrazol-5-Ylmethyl)-2,3-Dihydro-1H-Indole-2-Carboxamide], the pIC50 was < 5.00. In the case of `C[C@@H](O)[C@H](NC(=O)Cc1ccccc1)C(=O)NCC(=O)N1c2ccccc2C[C@H]1C(=O)NCc1nn[nH]n1` [Example C2, (2S)-1-{2-[(2S,3R)-3-Hydroxy-2-(2-Phenylacetamido)Butanamido]Acetyl}-N-(2H-1,2,3,4-Tetrazol-5-Ylmethyl)-2,3-Dihydro-1H-Indole-2-Carboxamide], the pIC50 was < 5.00. With `CC[C@H](C)[C@H](NC(=O)Cc1cccc(CC(=O)O)c1)C(=O)NCC(=O)N1c2ccccc2C[C@H]1C(=O)NCc1nn[nH]n1` [Example A35, 2-[3-({[(1S,2S)-2-Methyl-1-({2-Oxo-2-[(2S)-2-[(2H-1,2,3,4-Tetrazol-5-Ylmethyl)Carbamoyl]-2,3-Dihydro-1H-Indol-1-Yl]Ethyl}Carbamoyl)Butyl]Carbamoyl}Methyl)Phenyl]Acetic Acid] the pIC50 was > 7.00. `CC[C@H](C)[C@H](NC(=O)[C@H](C)CC(=O)OC)C(=O)NCC(=O)N1c2ccccc2C[C@H]1C(=O)NCc1nn[nH]n1` [Example A29, Methyl (3R)-3-Methyl-3-{[(1S,2S)-2-Methyl-1-({2-Oxo-2-[(2S)-2-[(2H-1,2,3,4-Tetrazol-5-Ylmethyl)Carbamoyl]-2,3-Dihydro-1H-Indol-1-Yl]Ethyl}Carbamoyl)Butyl]Carbamoyl}Propanoate] gave a pIC50 of 6.00 to 7.00. For `CC[C@H](C)[C@H](NC(=O)C1CCCC1C(=O)O)C(=O)NCC(=O)N1c2ccccc2C[C@H]1C(=O)NCc1nn[nH]n1` (single isomer, unassigned) [Example A57-2], the pIC50 was > 7.00.
